Test results as given in article PMC5727842, “Antioxidant and Antidiabetic Effects of Flavonoids: A Structure-Activity Relationship Based Study” (BioMed Research International, 2017).

Assays:
[1] = ABTS+ radical scavenging assay; conditions: 734 nm, mean ± SEM (n = 3)
Method: An improved ABTS^+ radical decolorization assay was carried out involving direct production of the blue/green ABTS^+ chromophore through the reaction between ABTS and potassium persulfate. Addition of antioxidant to the preformed radical cation reduces it to ABTS to an extent on a time scale depending on the antioxidant activity, the concentration of the antioxidant, and the duration of the reaction. 1 ml ABTS was dissolved in water to make 7 mM concentration of the resultant solution. […] The resultant reaction mixture was allowed to stand in the dark at room temperature for 12–16 h before being used. The ABTS^+ radical solution was diluted with MeOH to an absorbance of 0.7 (±0.02) at 734 nm. Then, 100 μl of sample at various concentrations (1000–0.4889 μg/mL) was mixed with 100 μL of diluted ABTS^+ radical. Each concentration was analyzed in triplicate and the percentage decrease of absorbance at 734 nm with a microplate reader (Tecan NanoQuant Infinite M200, Switzerland) was calculated for each point and the antioxidant capacity of the tested compounds was expressed as percent inhibition (%). The radical scavenging activity of the compounds was measured according to the following equation [29]:(2) % inhibition=Acontrol−Asample/Acontrol×100. IC50 values were calculated by linear regression of plots, and the average percent of scavenging capacity was taken from three replicates. Trolox was used as a standard in comparison for the determination of the antioxidant activity of the flavonoids.

[2] = DPPH radical scavenging assay; conditions: 30 min, 517 nm, mean ± SEM (n = 3)
Method: Each sample's stock solution was diluted to final concentrations of 1000–0.4889 μg/mL in MeOH. A total of 1 mL of a 0.3 mM DPPH methanolic solution was added to 2.5 mL of sample solution of different concentrations and allowed to react at room temperature. After 30 min, the absorbance (Abs) values were measured at 517 nm with a microplate reader (Tecan NanoQuant Infinite M200, Switzerland) and converted into the percentage antioxidant activity using the following equation described previously: (1) % antioxidant activity=100−Abssample−Abssample blank/Abscontrol−Abscontrol blank×100. MeOH + compound solution was used as a blank, while DPPH solution plus MeOH was used as a negative control. The positive controls were DPPH solution plus 1 mM ascorbic acid. The IC50 values were calculated by linear regression of plots. The average percent of scavenging capacity was taken from three replicates.

[3] = target: T1, xanthine oxidase from buttermilk (Bos taurus, UniProt P80457); assay: Xanthine oxidase inhibitory assay (XOI); assay type: biochemical; conditions: for xanthine oxidase inhibitory effect (in words): discussion
T1 construct: 0.3 U/mL enzymes (xanthine oxidase from buttermilk); purchased Sigma-Aldrich (Singapore); host or cells: buttermilk (natural source)
Method: XO catalyzes the oxidation of hypoxanthine to xanthine and subsequently to uric acid. The inhibition of XO reduces both vascular oxidative stress and circulating levels of uric acid. This assay is based on the fact that the superoxide anions are generated by the xanthine. The xanthine oxidase inhibitory activity was measured spectrophotometrically (Tecan NanoQuant Infinite M200, Switzerland) at 295 nm under aerobic condition with slight modification. The reaction mixture contained 50 mM phosphate buffer (pH 7.5), 0.15 mM xanthine (substrate), and 0.3 U/mL enzymes (xanthine oxidase from buttermilk). Samples were prepared by dissolving 1 mg in 5% DMSO in MeOH which gives sample concentration of 144.0 μg/mL in assay. […] The absorption increment at 295 nm indicates the formation of […] of uric acid/min at 25°C. […] All determination was done in triplicate and half maximal concentration (IC50) values were calculated from the percentage of inhibition. XO inhibition activity was expressed as the percentage inhibition of XO as follows:(3) % of inhibition=AbsA−B−C−D/AbsA−B×100, where A is the negative control with B as the blank of A which is without the enzyme and the sample while C is the activity of the sample with enzyme with D as the blank of the sample without enzyme.

[4] = Ferric reducing antioxidant power (FRAP); conditions: for FRAP (AAE μg): ascorbic acid equivalent, mean ± SEM (n = 3), Table 2
Method: This assay was based on the reduction of the ferric tripyridyltriazine (Fe III-TPTZ) complex to the ferrous ion (Fe II) at a low pH forming an intense blue color. In the FRAP assay, compounds that are rich in antioxidant effect exert their action by breaking the free radical chain by donating a hydrogen atom. Briefly, ferric reducing antioxidant power (FRAP) reagent (2.5 mL of a 10 mM TPTZ solution in 40 mM HCl, 2.5 mL of 20 mM FeCl3, and 25 mL of 0.1 M acetate buffer pH 3.6) was prepared and incubated for 10 min at 37°C. Then 20 μL of each compound and ascorbic acid (standard) and 40 μL of FRAP reagent were added to 140 μL of distilled water in a 96-well plate producing a blue-colored solution. The solutions were kept at room temperature for 20 min in the dark and then measured at 593 nm with a microplate reader (Tecan, Switzerland) using a reagent blank composed of 40 μL of FRAP reagents in 200 μL of distilled water. A calibration curve was prepared with a serial dilution of ascorbic acid (standard). The total antioxidant capacity was calculated by interpolating the measured absorbance of the calibration curve and expressed as ascorbic acid equivalents. The results were corrected for dilution and expressed as AAE μg of ascorbic acid/g.

[5] = target: T2, DPP-4 (Homo sapiens, UniProt P27487); assay: Dipeptidyl peptidase IV (DPP-4) inhibitory assay; assay type: biochemical; conditions: Table 3; mean ± SEM (n = 3); NA: not active
T2 construct: purchased Cayman (Michigan, USA)
Method: Dipeptidyl peptidase (IV) inhibitors work by inhibiting the action of this enzyme, thereby prolonging the activity of incretins that play an important role in insulin secretion and blood glucose control regulation. DPP-4 inhibitory assay was performed as per the standard method (Cayman, USA). Firstly, 1 mg of sample was dissolved in 10% of DMSO and MeOH as the stock solution. For initial activity (100%), 10 μL of MeOH, 30 μL of diluted assay buffer, and 10 μL of diluted DPP-4 (Cayman, USA) were added to 96-well microplate. […] For background well, 10 μL of MeOH and 40 μL of diluted assay buffer were added. Then, 10 μL of prepared sample and 30 μL of diluted assay buffer were added with 10 μL of diluted DPP-4. After that, 50 μL of substrate solution was added to all wells to initiate the reaction and further incubated in the dark at 37°C for 30 min. Finally, plate was read at 360 nm of excitation wavelength and 465 nm of emission wavelength using fluorescence microplate reader (Perkin Elmer, Germany). All determinations were done in triplicate and half maximal concentration (IC50) values were calculated from the percentage of inhibition based on the linear regression analysis. The equation given below was applied to calculate the inhibitory activity (%):(5) Inhibitory activity%=Initial Activity−Sample/Initial Activity×100%.
For DPP-4 inhibitory assay, the reaction is based on the cleavage of the peptide bond by DPP releasing the free Gly-Pro-aminomethylcoumarin group, a fluorogenic substrate resulting in fluorescence excitation and emission.

[6] = Rapid screening of radical scavenging activity by dot blot assay (DPPH staining); conditions: silica sheet stained with DPPH in MeOH, dilutions from 1000 μg/mL
Method: An aliquot (20 μL) of each dilution of each group was carefully loaded on a […] TLC plate and allowed to dry for 10 min. Drops of each sample were loaded in the order of decreased concentration along the 16 columns. The staining of the silica plate was based on the procedure of Soler-Rivas et al.. […] The intensity of the yellow color depends upon the amount and nature of radical scavenger present in the flavonoids.

T1 sequence (P80457 whole entry): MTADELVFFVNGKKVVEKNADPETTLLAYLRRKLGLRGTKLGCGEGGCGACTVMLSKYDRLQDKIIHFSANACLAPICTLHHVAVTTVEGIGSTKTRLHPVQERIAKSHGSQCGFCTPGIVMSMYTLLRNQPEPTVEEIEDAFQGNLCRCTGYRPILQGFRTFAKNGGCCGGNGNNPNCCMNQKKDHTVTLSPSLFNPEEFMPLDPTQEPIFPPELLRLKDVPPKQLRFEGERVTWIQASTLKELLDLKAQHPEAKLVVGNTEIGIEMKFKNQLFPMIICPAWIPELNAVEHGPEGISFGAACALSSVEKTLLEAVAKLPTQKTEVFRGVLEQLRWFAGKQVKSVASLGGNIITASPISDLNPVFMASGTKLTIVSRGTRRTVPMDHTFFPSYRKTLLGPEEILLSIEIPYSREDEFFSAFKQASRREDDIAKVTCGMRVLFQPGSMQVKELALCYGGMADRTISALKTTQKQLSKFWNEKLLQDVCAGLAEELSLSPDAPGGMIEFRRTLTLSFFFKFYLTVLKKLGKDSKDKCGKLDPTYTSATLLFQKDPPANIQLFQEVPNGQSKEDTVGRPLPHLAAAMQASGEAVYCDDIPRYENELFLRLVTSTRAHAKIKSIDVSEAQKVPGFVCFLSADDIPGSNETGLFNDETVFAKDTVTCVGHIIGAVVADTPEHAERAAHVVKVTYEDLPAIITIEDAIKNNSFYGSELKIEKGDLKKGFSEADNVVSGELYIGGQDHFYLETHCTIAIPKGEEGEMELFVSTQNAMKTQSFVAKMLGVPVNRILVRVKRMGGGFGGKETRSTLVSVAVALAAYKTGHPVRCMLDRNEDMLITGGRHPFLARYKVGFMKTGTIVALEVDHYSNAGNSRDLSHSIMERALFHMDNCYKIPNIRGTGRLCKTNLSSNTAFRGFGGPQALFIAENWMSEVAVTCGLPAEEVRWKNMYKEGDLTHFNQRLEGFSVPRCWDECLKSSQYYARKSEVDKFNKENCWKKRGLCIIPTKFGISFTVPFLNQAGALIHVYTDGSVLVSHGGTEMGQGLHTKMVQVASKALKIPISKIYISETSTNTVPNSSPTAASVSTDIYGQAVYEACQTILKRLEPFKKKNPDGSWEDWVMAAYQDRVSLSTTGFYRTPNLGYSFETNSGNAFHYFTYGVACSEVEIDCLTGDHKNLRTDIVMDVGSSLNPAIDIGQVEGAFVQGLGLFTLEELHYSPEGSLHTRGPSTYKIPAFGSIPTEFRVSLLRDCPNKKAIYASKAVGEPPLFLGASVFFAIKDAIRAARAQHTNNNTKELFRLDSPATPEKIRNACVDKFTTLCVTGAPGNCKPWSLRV
T2 sequence (P27487 whole entry): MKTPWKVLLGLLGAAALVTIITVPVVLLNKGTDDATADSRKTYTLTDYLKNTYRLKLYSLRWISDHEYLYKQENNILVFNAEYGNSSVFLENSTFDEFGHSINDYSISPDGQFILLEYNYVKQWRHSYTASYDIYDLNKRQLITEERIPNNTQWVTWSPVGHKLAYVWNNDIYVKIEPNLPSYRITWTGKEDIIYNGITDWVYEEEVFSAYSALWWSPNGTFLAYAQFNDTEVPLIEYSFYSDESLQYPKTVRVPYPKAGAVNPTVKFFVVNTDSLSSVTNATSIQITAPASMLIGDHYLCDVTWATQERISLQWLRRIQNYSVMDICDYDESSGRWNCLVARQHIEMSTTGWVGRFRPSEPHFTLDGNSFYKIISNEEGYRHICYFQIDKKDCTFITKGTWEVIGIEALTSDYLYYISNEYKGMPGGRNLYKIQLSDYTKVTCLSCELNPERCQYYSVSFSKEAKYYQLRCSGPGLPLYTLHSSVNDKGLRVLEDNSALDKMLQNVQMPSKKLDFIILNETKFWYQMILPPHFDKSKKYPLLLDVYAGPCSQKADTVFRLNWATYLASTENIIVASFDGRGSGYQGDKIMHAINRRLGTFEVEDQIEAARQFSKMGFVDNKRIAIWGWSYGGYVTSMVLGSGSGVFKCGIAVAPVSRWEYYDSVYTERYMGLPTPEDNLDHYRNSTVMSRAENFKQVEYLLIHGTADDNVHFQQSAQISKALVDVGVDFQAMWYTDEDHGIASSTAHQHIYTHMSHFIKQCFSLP

Structure (SMILES) | IC50 ABTS+ [1] | IC50 DPPH [2] | xanthine oxidase inhibitory effect (in words) [3] | IC50 ([3]; xanthine oxidase inhibition, 295 nm, mean ± SEM (n = 3), NA: not active) [µM] | FRAP (AAE μg) [4] | IC50 [5] [µM] | radical scavenging activity by dot blot (intensity of yellow spots) [6] | FRAP antioxidant capacity [4]
Cc1c(C)c2c(c(C)c1O)CCC(C)(C(=O)O)O2 (stereo not shown) [Trolox, trolox, reference compound] | 1.76 ± 0.15^^FG µg/ml | – | – | – | – | – | – | –
O=c1cc(-c2ccc(O)cc2)oc2c(O)c(O)cc(O)c12 [Isoscutellarein, 4′,5,7,8-Tetrahydroxyflavone] | 1.73 ± 0.06^FG µg/ml | 5.23 ± 0.53^GHa µg/ml | low xanthine oxidase inhibitory activity | > 349 | 262.91 ± 4.99^A AAE μg | 77.7 | strong radical scavenging activity | –
Oc1cc(O)c2c(c1)O[C@H](c1ccc(O)c(O)c1)[C@@H](O)C2 [(+)-Catechin] | 0.62 ± 0.05^G µg/ml | 14.34 ± 1.55^EF µg/ml | inactive | – | 148.12 ± 4.40^C AAE μg | – | strong radical scavenging activity | 152.07 ± 1.95 AAE μg of ascorbic acid/g
O=c1c(O)c(-c2ccc(O)c(O)c2)oc2cc(O)cc(O)c12 [Quercetin, 3,3′,4′,5,7-Pentahydroxyflavone] | 0.83 ± 0.01^FG µg/ml | 7.76 ± 0.99^FG µg/ml | significant xanthine oxidase inhibitory effect | – | 138.93 ± 6.22^C AAE μg | 72 | strong radical scavenging activity | 148.12 ± 4.40 AAE μg of ascorbic acid/g
Oc1cc(O)c2c(c1)O[C@H](c1ccc(O)c(O)c1)[C@H](O)C2 [(−)-Epicatechin] | 0.70 ± 0.08^G µg/ml | 9.92 ± 0.33^F µg/ml | inactive | – | 152.07 ± 1.95^C AAE μg | – | strong radical scavenging activity | 152.14 ± 7.30 AAE μg of ascorbic acid/g
O=C1O[C@H]([C@@H](O)CO)C(O)=C1O [Ascorbic acid, ascorbic acid, reference compound] | – | 4.75 ± 0.91^GHa µg/ml | – | – | 114.58 ± 0.27^Da AAE μg | – | – | 114.58 AAE μg of ascorbic acid/g
CC(=O)Oc1cc(OC(C)=O)c2c(=O)cc(-c3ccccc3)oc2c1OC(C)=O [Acetate (norwogonin), 5,7,8-Triacetoxyflavone] | 78.99 ± 66.5^C µg/ml | >100^B µg/ml | – | – | 39.63 ± 1.01^E AAE μg | > 252 | did not show any spot | 39.63 ± 1.01 AAE μg of ascorbic acid/g
COc1cc(OC)c2c(=O)cc(-c3ccccc3)oc2c1OC [Methyl ether (wogonin), 5,7,8-Trimethoxyflavone] | >200^A µg/ml | >200^A µg/ml | – | – | 1.68 ± 0.18^G AAE μg | > 320 | did not show any spot | 1.68 ± 0.18 AAE μg of ascorbic acid/g
O=c1c(O)c(-c2ccc(O)cc2)oc2cc(O)cc(O)c12 [Kaempferol, 4′,3,5,7-Tetrahydroxyflavone] | 1.36 ± 0.22^FG µg/ml | 10.89 ± 0.86^EF µg/ml | significant xanthine oxidase inhibitory effect | – | 265.65 ± 5.46^A AAE μg | 160 | strong radical scavenging activity | 265.65 ± 5.46 AAE μg of ascorbic acid/g
